From ChEMBL document CHEMBL5113548, “Novel Lactams as Cbl-b Inhibitors for Treating Cancer” (ACS Med Chem Lett, 2022)

Molecular target: E3 ubiquitin-protein ligase CBL-B (Homo sapiens, UniProt Q13191)
Test: Inhibition of Cbl-b (unknown origin) assessed as reduction in LCK ubiquitination preincubated for 60 mins followed by kinase mix addition measured after 90 mins by TR-FRET assay

E3 ubiquitin-protein ligase CBL-B, sequence (Q13191 whole entry): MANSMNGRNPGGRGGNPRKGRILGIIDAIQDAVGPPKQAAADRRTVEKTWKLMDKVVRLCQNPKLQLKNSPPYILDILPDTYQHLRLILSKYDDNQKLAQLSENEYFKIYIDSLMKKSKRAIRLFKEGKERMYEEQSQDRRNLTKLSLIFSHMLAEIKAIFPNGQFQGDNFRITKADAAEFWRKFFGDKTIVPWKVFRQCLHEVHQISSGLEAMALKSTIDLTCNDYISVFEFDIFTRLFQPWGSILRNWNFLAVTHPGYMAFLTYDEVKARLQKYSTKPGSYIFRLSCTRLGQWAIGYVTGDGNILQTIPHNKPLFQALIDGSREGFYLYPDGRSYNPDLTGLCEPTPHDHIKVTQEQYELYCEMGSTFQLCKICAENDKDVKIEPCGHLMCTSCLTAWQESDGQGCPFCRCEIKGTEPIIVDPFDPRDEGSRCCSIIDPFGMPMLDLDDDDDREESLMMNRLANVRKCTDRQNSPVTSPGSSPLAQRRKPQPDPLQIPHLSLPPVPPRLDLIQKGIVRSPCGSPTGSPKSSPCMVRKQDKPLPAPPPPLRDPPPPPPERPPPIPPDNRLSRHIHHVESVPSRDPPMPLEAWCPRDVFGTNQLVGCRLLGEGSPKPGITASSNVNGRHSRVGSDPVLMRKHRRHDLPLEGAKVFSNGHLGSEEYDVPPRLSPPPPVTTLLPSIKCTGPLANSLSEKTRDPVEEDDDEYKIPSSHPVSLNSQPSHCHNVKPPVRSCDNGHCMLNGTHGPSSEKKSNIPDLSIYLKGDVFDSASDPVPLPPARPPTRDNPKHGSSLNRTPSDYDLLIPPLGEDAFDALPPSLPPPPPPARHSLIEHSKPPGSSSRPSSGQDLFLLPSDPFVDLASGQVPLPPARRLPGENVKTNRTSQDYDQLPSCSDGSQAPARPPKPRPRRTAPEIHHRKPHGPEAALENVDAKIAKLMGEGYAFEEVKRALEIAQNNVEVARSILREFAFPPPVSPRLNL

Row | IC50 | Compound
1 | 5.8 nM | C[C@@H](NC1(C)CCC1)c1cc2c(c(C(F)(F)F)c1)CN(c1cccc(C3(Cc4nncn4C)CC(F)(F)C3)c1)C2=O
2 | 5.5 nM | CC(C)[C@@H]1CN(C)CCN1Cc1cc2c(c(C(F)(F)F)c1)CN(c1cc(C3(Cc4nncn4C)COC3)cc(OC3CCCC3)n1)C2=O
3 | 6.7 nM | C[C@@H](NC1(C)CCC1)c1cc2c(c(C(F)(F)F)c1)CN(c1cccc(C3([C@@H](F)c4nncn4C)COC3)c1)C2=O
